From PubChem BioAssay (NCI)
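Values below derive from 48-hour exposures of cells grown in 96-well plates, with endpoints linearly interpolated between the two concentrations bracketing the appropriate inhibition level. GI50 = concentration required for 50% inhibition of growth. TGI: total growth inhibition.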

Experiments:
Test in all cases: NCI-60 cell line screen, 48 h
[1] = system: OVCAR-8 ovarian
[2] = system: HOP-62 NSCLC
[3] = system: LOX IMVI melanoma
[4] = system: HCT-116 colon
[5] = system: SK-MEL-28 melanoma
[6] = system: HS 578T breast
[7] = system: SK-MEL-5 melanoma
[8] = system: HL-60(TB) leukemia
[9] = system: SR leukemia
[10] = system: NCI-H460 lung

SMILES	GI50 [1] [µM]	TGI [1] [µM]	GI50 [2] [µM]	TGI [2] [µM]	GI50 [3] [µM]	TGI [3] [µM]	GI50 [4] [µM]	TGI [4] [µM]	GI50 [5] [nM]	TGI [5] [µM]	GI50 [6] [µM]	TGI [6] [µM]	GI50 [7] [µM]	TGI [7] [µM]	GI50 [8] [µM]	TGI [8] [µM]	GI50 [9] [µM]	TGI [9] [µM]	GI50 [10] [µM]	TGI [10] [µM]
Cc1ccc(/C(=C/C=C(C#N)C#N)Sc2ccccn2)cc1	7.41	24.3	6.5	18	1.83	4.05	2.35	5.71	2080	4.51	2.46	8.32	2.51	7.55	0.328	3.72	3.06	10.4	4.62	21
CC(C)=CC1CC(C)C2(CCC3(C)CC4C(C(=O)CC4(C)O)/C(C=O)=C\CC32)O1 (stereo not given)		0.214		0.274		0.182		0.15		0.277		0.421		0.588		0.0576		0.0945		0.283
O=[N+]([O-])/C=C/c1ccc([N+](=O)[O-])cc1	3.68	15.1	10.9	23.7	1.32	2.73	1.52	3.08	2740	7.57	2.64	9.87	1.76	4.51	5.38	54.8	2.29	8.33	4.57	22.6
COc1ccc(-c2ccccc2)cc1-c1c(Nc2cc(Cl)cc(Cl)c2O)c(=O)c1=O	1.84	> 50	1.56	> 50	1.72	> 50	1.58	> 50	2050	> 50	1.25	4.55	0.97	2.25	1.11	2.54	1.61	21.8	1.55	> 50
O=C(CCCn1ccnc1[N+](=O)[O-])NCCn1ccnc1[N+](=O)[O-]		> 100		> 100		> 100		> 100		> 100		> 100		> 100		> 100		> 100		> 100
COc1cc(/C=C2\C(=O)Nc3ccccc32)cc(OC)c1OC	25	> 100	22.2	62.3	16.5	> 100	17.3	> 100	41800	> 100	28.7	> 100	11.1	57.1	8.15	> 100	3.83	> 100	11.8	> 100
CN(C)S(=O)(=O)c1ccc(Nc2ccc(O)c3c2C(=O)c2c([N+](=O)[O-])ccc(O)c2C3=O)cc1		> 100		> 100		> 100		> 100		> 100		> 100		> 100		> 100		> 100		> 100
CCC(=O)c1ccc2c(c1)N(CCCN1CCN(CCO)CC1)c1ccccc1S2	16.9	32.7	16.2	30.3	11.1	26.5	10.5	22.9	2750	7.75	13.3	36.5	8.65	21.1	12.7	30.3	11.7	28.7	17.6	33.5
CCN1CCC(CC(=O)Nc2n[nH]c3nc(-c4cccs4)c(Br)cc23)CC1	11.6	> 25	10.6	> 25	5.11	14.1	7.81	> 23.4	5310	9.85	12.3	> 25	6.37	> 14.6	7.31	14.8	11.2	> 25	10.1	> 25
COC(=O)[C@@H]1CCCN1C(=O)[C@H]1CCCN1C(=O)[C@@H](Cc1c[nH]c2ccccc12)NC(=S)Nc1cc(C(F)(F)F)cc(C(F)(F)F)c1	2.55	6.4	3.25	12.1	1.95	4.29	1.96	4.14	3050	10.2	2.94	13.4	2.45	7.11	2.7	6.35	2.48	6.3	2.01	4.26
Cc1cc(N=C2C=C(Nc3cc(C)on3)C(=O)c3ccccc32)no1		> 100		> 100		> 61.5		> 100		> 100		> 100		15.9		> 100		> 100		> 100
CCOC(=O)C1=C(c2ccccc2)N(c2ccc(OC)cc2)[C@]2(C#N)C(O)=C(Cl)C(Cl)=C(O)[C@]12C#N	33	> 100	20.9	40.1	16.4	30.9	16.3	29.8	21300	41.9	43.5	> 100	22.1	51.9	24.5	50.1	11.5	28.8	35	> 100
